≈ marks a conversion by molar mass, not a printed value. Like-named read-outs stand apart in the source and are kept apart here.
Columns and labels:
E. coli [1] = assay: Metabolic activity inhibition (INT); type: cell-based, Escherichia coli
Description: (§1) The ability of the isolated compounds to inhibit the bacterial metabolic activity was tested against E. coli and S. aureus following the method used by Ramage and Lopez-Ribot with slight modification. The organisms were inoculated in a 96-well microplate following the same biofilm assay procedure described above. The final concentration of each compound in the wells was 0.016 mg/mL, 0.031 mg/mL, 0.063 mg/mL, 0.125 mg/mL and 1 mg/mL respectively. After 24 h of incubation with samples, the plates were washed three times with sterile distilled water and 50 μL of 1 mg/mL INT was added to each well and further incubated in the dark for 2 h. After incubation, absorbance was read at 490 nm using a microplate reader and the percentages of reduction of bacterial metabolic activity in the presence of different concentrations of compounds were calculated using the formula:
(§2) percentage inhibiton=mean of culture control−mean of sample/mean of culture controlx100

S. aureus [2] = assay: Cell adhesion to BSA-coated polystyrene surface; type: cell-based, Staphylococcus aureus; settings: 1 mg/mL, polystyrene microplate
Description: (§3) Anti-adhesion activity of isolated compounds was determined using the method of Namasivayam and Vivek with slight modification. To a sterile 96-well flat-bottomed polystyrene microtititre plate, 150 μL of freshly prepared 1% lyophilized powdered globular protein BSA, dissolved in water was added to all wells except for the wells allocated for media only. The plates were incubated for 30 min at 30 °C. Following incubation the wells were washed three times with PBS. To the wells, 50 μL of bacterial cultures equivalent to 1 × 10^6 cfu/mL read at 590 nm, prepared from overnight cultures were added. […] The seeded microtitre plates were incubated for 24 h at 37 °C. Non-adhered cells were washed five times with PBS at room temperature. Adhered cells were stained by the addition of 50 μL of 0.1% crystal violet and further incubation for a further 30 min at room temperature. Afterwards, wells were washed with sterile distilled water to remove excess stain followed by the addition of 10 μL of absolute ethanol to fix the adhered cells. Finally, 50 μL of 0.2% Triton X was added to the wells to lyse the cells and the absorbance was read at 570 nm using a microplate reader. Percentage adherence inhibition was calculated using the formula above.

in vitro [3] = assay: in vitro
Description: (§4) Different concentrations of the compounds ranging from 0.003 to 0.2 mg/mL were tested for cytotoxicity against three cell lines; Vero monkey kidney, C3A and Caco2. Vero cells were grown and maintained in MEM, supplemented with 0.1% gentamicin and 5% foetal calf serum, while Caco2 and C3A cells were grown and maintained in DMEM supplemented with 10% foetal calf serum, 1% non-essential amino acids and 1% penicillin-streptomycin. All cells were incubated in a 5% CO2 incubator at 37 °C. Doxorubicin chloride was used as positive control while 10% DMSO used in dissolving the test samples was used as the negative control. The 3-(4,5-dimethylthiazol)-2,5-diphenyl tetrazolium bromide (MTT) assay described by Mosmann with modification by McGaw et al. was used to determine the cytotoxicity of the test samples. The lethal concentration (LC50) value was calculated as the concentration of tested sample resulting in a 50% reduction of absorbance compared to untreated cells. Selectivity index (SI) values were calculated against the MIC using the formula: […]

[4] = test system: S. aureus (ATCC 29213) biofilm; assay: Biofilm inhibition, crystal violet staining; type: cell-based, Staphylococcus aureus; settings: for Biofilm inhibition (verdict in words): planktonic (0 h) and biofilm (24 h) stages, 1 mg/mL and MIC level
Description: A single colony of E. coli (ATCC 25922) and S. aureus (ATCC 29213), strains were each inoculated into TSB and incubated for 24 h. The biofilm inhibition assay was carried out by adopting the method described by […] et al.. Two stages; planktonic, T0 and biofilm formation, T24 were investigated against the 24 h prepared bacterial cultures. One hundred microliters of each standardised bacterial culture (OD590 1 × 10^6 cfu/mL) was aliquoted into wells of a sterile flat bottomed 96-well microplate. Plates prepared for 24 h biofilm formation were immediately sealed with an adhesive sealer, placed in the incubator and incubated for 24 h at 37 °C. […] To the plates prepared for 0 h, the samples were added immediately. Wells containing cultures only, as well as acetone and sterile distilled water used to prepare the samples were included as controls. All plates after the addition of samples were sealed and incubated for 24 h to enable the samples to react with the biofilms. The incubated plates were washed with sterile distilled water three to four times after incubation to remove the unattached cells and were placed in the oven at 60 °C for 45 min. To all wells, 100 μL of 1% crystal violet dissolved in distilled water was added and plates were incubated for 15 min at room temperature after which the plates were washed again with sterile distilled water to remove unabsorbed stain. One hundred and twenty-five microliters of 100% ethanol was added to destain the wells. From the wells, 100 μL of the destaining solution was transferred to a new plate and semi-quantitative assessment of biofilm formation was done by measuring absorbance at 590 nm using SoftMax […] software on a microplate reader (SpectraMax M2). The mean absorbance of the samples was determined, and percentage inhibition was obtained using the equation below: percentage inhibiton=mean of culture control-mean of sample/mean of culture controlx100

S. aureus [5] = assay: Metabolic activity inhibition (INT); type: cell-based, Staphylococcus aureus
Description: as §1, §2

E. coli [6] = assay: Cell adhesion to BSA-coated polystyrene surface; type: cell-based, Escherichia coli; settings: 1 mg/mL, polystyrene microplate
Description: as §3

in vitro [7] = assay: in vitro; remark: listed apart in the source
Description: as §4

E. coli [8] = test system: E. coli; parameters: method as in earlier work; settings: ref [70] Teffo et al.; cited from earlier work
Caco2 cells = assay: in vitro; settings: Caco2
Description: as §4

SMILES	Metabolic activity inhibition (verdict in words) (E. coli [1])	Adherence inhibition (verdict in words) (S. aureus [2])	CC50 (in vitro [3])	Biofilm inhibition (verdict in words) [4]	Metabolic activity inhibition (verdict in words) (S. aureus [5])	Metabolic activity inhibition (verdict in words) (S. aureus [5]; planktonic stage, MIC of 0.063 mg/mL)	Adherence inhibition (verdict in words) (E. coli [6])	CC50 (in vitro [7])	MIC / antibacterial activity (E. coli [8])	Biofilm inhibition ([4]; at 24 h)	Selectivity index (LC50/MIC) (Caco2 cells; A. fumigatus 48 h)	Selectivity index (LC50/MIC) (Caco2 cells; E. coli (1))	Selectivity index (LC50/MIC) (Caco2 cells; E. coli (2))	Selectivity index (LC50/MIC) (Caco2 cells; E. coli (3))	Selectivity index (LC50/MIC) (Caco2 cells; K. pneumoniae)	Selectivity index (LC50/MIC) (Caco2 cells; S. aureus)
COc1ccc(C2CC(=O)c3c(OC)cc(OC)cc3O2)cc1 (racemic) [Compound 2, (±)-4′,5,7-trimethoxy flavanone]	good	weak	200 µg/mL (≈ 636 µM)	good and poor inhibition and good inhibitory activity	good	did not show inhibition	weak	> 200 µg/mL	–	–	–	–	–	–	–	–
COc1ccc(-c2oc3cc(OC)cc(O)c3c(=O)c2OC)cc1 [Compound 3, 5-hydroxy-3,7,4′-trimethoxyflavone]	good	weak	–	good and good inhibitory activity	good	–	weak	–	no activity was recorded	higher than 50%	5.129	2.52	0.636	0.636	1.272	9.938
